The values that follow come from US20080200473A1, “Imidazo [1,2-a]Pyridine Compounds, Compositions, Uses and Methods Thereto” (Ferrer Internacional, S.A., priority 2004, published 2008).

One assay has as its system α1-GABAA receptor. The assay can be described thus: Ligand-binding assay, competitive with radiolabeled flumazenil, cerebellum membranes. The settings on record: Affinity for α1-GABAA receptor, rat cerebellum membranes, radiolabeled flumazenil 1 nM; for % Inhibition 10^−5M: 10^-5M test compound; for % Inhibition 10^−7M: 10^-7M test compound.
The next assay concerns α2-GABAA receptor. The assay can be described thus: Ligand-binding assay, competitive with radiolabeled flumazenil, spinal cord membranes. The settings on record: Affinity for α2-GABAA receptor, rat spinal cord membranes, radiolabeled flumazenil 1 nM; for % Inhibition 10^−5M: 10^-5M test compound; for % Inhibition 10^−7M: 10^-7M test compound.
The test system of another assay is mice. As to the kind of experiment: In vivo predictive sedation-hypnosis test (inhibition of traveled distance). Also noted: species or system mouse. The settings on record: male CD1 mice; single equimolecular intraperitoneal doses; traveled distance over 30 min after dosing (first 5 min discarded) versus control.

For `Cc1ccc(-c2nc3ccc(C)cn3c2CNC(=O)c2cscn2)cc1` [Example 81, Thiazole-4-carboxylic acid (6-methyl-2-p-tolyl-imidazo[1,2-a]pyridin-3-ylmethyl)-amide], in the assay on α1-GABAA receptor, the “% Inhibition 10^−5M” value came out at 99.6% and the “% Inhibition 10^−7M” value worked out at 69.9%. Further, in the assay on α2-GABAA receptor, the “% Inhibition 10^−5M” value was 94.3% and the “% Inhibition 10^−7M” value came out at 1.5%. In addition, the “% Inhibition Motor Activity” value in the assay with mice was 84.31%.

Regarding `Cc1ccc(-c2nc3ccc(C)cn3c2CN(C)C(=O)c2ccc3ccccc3n2)cc1` [Example 35, Quinoline-2-carboxylic acid methyl-(6-methyl-2-p-tolyl-imidazo[1,2-a]pyridin-3-ylmethyl)-amide], in the assay on α1-GABAA receptor, the “% Inhibition 10^−5M” value was found to be 67.1% and the “% Inhibition 10^−7M” value was 31.8%. Further, in the assay on α2-GABAA receptor, the “% Inhibition 10^−5M” value is reported as 3.7% and the “% Inhibition 10^−7M” value came to 0.0%. Further, the “% Inhibition Motor Activity” value in the assay with mice is 33.19%.

Regarding `Cc1ccc(-c2nc3ccc(C)cn3c2CN(C)C(=O)c2ccc(N(C)C)cc2)cc1` [Example 22, 4-Dimethylamino-N-methyl-N-(6-methyl-2-p-tolyl-imidazo[1,2-a]pyridin-3-ylmethyl)-benzamide], in the assay with α1-GABAA receptor, the “% Inhibition 10^−5M” value is reported as 84.8% and the “% Inhibition 10^−7M” value is given as 62.3%. In addition, in the assay on α2-GABAA receptor, the “% Inhibition 10^−5M” value is on record as 9.4% and the “% Inhibition 10^−7M” value is reported as 0.0%. For the same compound, in the assay with mice, the “% Inhibition Motor Activity” value is reported as 89.45%.

Consider `Cc1ccc(-c2nc3ccc(C)cn3c2CNC(=O)c2cc(C)on2)cc1` [Example 72, 5-Methyl-isoxazole-3-carboxylic acid (6-methyl-2-p-tolyl-imidazo[1,2-a]pyridin-3-ylmethyl)-amide], for which, in the assay with α1-GABAA receptor, the “% Inhibition 10^−5M” value stood at 99.8% and the “% Inhibition 10^−7M” value worked out at 73.4%. In the assay on α2-GABAA receptor, the “% Inhibition 10^−5M” value was 95% and the “% Inhibition 10^−7M” value is recorded as 33.1%. In the assay on mice, the “% Inhibition Motor Activity” value is 73.81%.
